Assay results as given in patent publication US20200046869A1, “USE OF ZINC TREATED PRECIPITATED CALCIUM CARBONATE IN HYGIENIC PRODUCTS” (Omya International AG, priority 2017, published 2020).

Experiments:
[1] = tested on: Aerobe bacteria (TSA plates); assay: Plate count of aerobe total viable count in zinc containing powders; assay type: cell-based; conditions: powder in disruption buffer, 48 hours at 30° C., detection limit 100 cfu/g
Method: (§1) The microbial contamination (bacterial and fungi growth) of three different zinc containing powder samples was determined by the plate count method (spread count) according to the following procedure: 1 g of the respective powder and 9 ml sterile disruption buffer (DB) were weighed into a sterile 50 ml test tube (Greiner) under aseptic conditions using an autoclaved disposable spatula (VWR) in order to obtain suspensions of the zinc containing powder samples. To detach the microorganisms from the zinc containing powders samples, the suspensions were shaken on a vortex for 60 sec. at 2500 rpm before being put on a shaker for 30 minutes at motor setting 1400 (at room temperature, i.e. 21° C.). The sample to be analyzed was appropriately diluted and a defined volume no greater than 0.1 ml was spread over the surface of an agar plate using a sterile glass/plastic spreader. The agar plates were then incubated upside down (condensed water) for a defined period of time at a defined temperature. The sample to be analyzed was diluted 1:10 in PBS and 100 μl of the dilution was spread onto the TSA plate which was incubated for 48 hours at 30° C. The plates were evaluated by counting the grown colonies, thereby taking into account that only plates containing between 30-300 colonies have a high statistical significance. […]

[2] = tested on: Fungi; assay: Plate count of fungal growth in zinc containing powders; assay type: cell-based; conditions: powder in disruption buffer, Sabouraud-Glucose agar, 7 days at 25° C.; detection limit 10 cfu/g
Method: as §1, with “dilution were” for “dilution was”, “the” for “the TSA”, “for 7 days” for “for 48 hours”, “at 25°” for “at 30°”

Row | SMILES | TVC Aerobe [1] | TVC Fungi [2]
1 | O=C([O-])[O-].[Zn+2] [ZnCaCO3, ZnCO3] | <100 cfu/g | <10 cfu/g
2 | [O]=[Zn] [ZnO] | <100 cfu/g | <10 cfu/g
